# Literature values as cited in PubChem BioAssay AID1259409 (Chemical Carcinogenesis Research Information System (CCRIS), 2018).
# Tested on: rodent chemically induced tumor inhibition, incidence and multiplicity
# Assay: CCRIS tumor inhibitor studies
compound,measurement,setting,value
C[C@H]1CCCC(=O)CCC/C=C/c2cc(O)cc(O)c2C(=O)O1,"tumour outcome (control, treated, inhibition, significance)","Carcinogen: 7,12-DIMETHYLBENZ[A]ANTHRACENE [57-97-6], Dose [Inhibitor]: 20 UG/L IN 0.05 ML PEANUT OIL 2X/WK FOR 2 WK BEGINNING AT 7 D OF AGE (STUDY DURATION: 24 WK), Route [Inhibitor]: SUBCUTANEOUS, Species: RAT, Strain/Sex: SPRAGUE-DAWLEY/FEMALE, Target Tissue: Type of Lesion: MAMMARY GLAND: TUMOR, Dose [Carcinogen]: 10 MG IN 1 ML PEANUT OIL ONCE AT 45 D OF AGE (STUDY DURATION: 24 WK), Promoter: NONE","17/30 (57%), 9/30 (30%), 47%, p<0.018"
Cc1[nH]cnc1CSCCN=C(NC#N)N(C)N=O,"tumour outcome (control, treated, inhibition, significance)","Carcinogen: 7,12-DIMETHYLBENZ[A]ANTHRACENE, 57-97-6, Dose [Inhibitor]: 1 G/L IN DRINKING WATER AD LIBITUM BEGINNING 1 WK POST PROMOTER DOSE FOR DURATION OF STUDY (STUDY DURATION: 52 WK), Route [Inhibitor]: ORAL, Species: MOUSE, Strain/Sex: SENCAR/FEMALE, Target Tissue: Type of Lesion: SKIN: CARCINOMA, Dose [Carcinogen]: 120 UG IN 0.2 ML ACETONE ONCE, Promoter: 12-O-TETRADECANOYLPHORBOL-13-ACETATE, 16561-29-8","24/30 (80%), 18/25 (72%), 10%, not calculated"
same,"tumour outcome (control, treated, inhibition, significance)","Carcinogen: 7,12-DIMETHYLBENZ[A]ANTHRACENE, 57-97-6, Dose [Inhibitor]: 1 G/L IN DRINKING WATER AD LIBITUM BEGINNING 1 WK POST PROMOTER DOSE FOR DURATION OF STUDY (STUDY DURATION: 52 WK), Route [Inhibitor]: ORAL, Species: MOUSE, Strain/Sex: SENCAR/FEMALE, Target Tissue: Type of Lesion: SKIN: KERATOACANTHOMA, Dose [Carcinogen]: 120 UG IN 0.2 ML ACETONE ONCE, Promoter: 12-O-TETRADECANOYLPHORBOL-13-ACETATE, 16561-29-8","16/30 (53%), 8/25 (32%), 40%, p<0.05"
same,"tumour outcome (control, treated, inhibition, significance)","Carcinogen: 7,12-DIMETHYLBENZ[A]ANTHRACENE, 57-97-6, Dose [Inhibitor]: 1 MG/WK BEGINNING 1 WK POST FIRST PROMOTER DOSE FOR DURATION OF STUDY (STUDY DURATION: 52 WK), Route [Inhibitor]: DERMAL, Species: MOUSE, Strain/Sex: SENCAR/FEMALE, Target Tissue: Type of Lesion: SKIN: CARCINOMA, Dose [Carcinogen]: 120 UG IN 0.2 ML ACETONE ONCE, Promoter: 12-O-TETRADECANOYLPHORBOL-13-ACETATE, 16561-29-8","24/30 (80%), 23/30 (77%), 4%, not calculated"
same,"tumour outcome (control, treated, inhibition, significance)","Carcinogen: 7,12-DIMETHYLBENZ[A]ANTHRACENE, 57-97-6, Dose [Inhibitor]: 1 MG/WK BEGINNING 1 WK POST FIRST PROMOTER DOSE FOR DURATION OF STUDY (STUDY DURATION: 52 WK), Route [Inhibitor]: DERMAL, Species: MOUSE, Strain/Sex: SENCAR/FEMALE, Target Tissue: Type of Lesion: SKIN: KERATOACANTHOMA, Dose [Carcinogen]: 120 UG IN 0.2 ML ACETONE ONCE, Promoter: 12-O-TETRADECANOYLPHORBOL-13-ACETATE, 16561-29-8","16/30 (53%), 15/30 (50%), 6%, not calculated"
same,"tumour outcome (control, treated, inhibition, significance)","Carcinogen: 7,12-DIMETHYLBENZ[A]ANTHRACENE, 57-97-6, Dose [Inhibitor]: 1130 PPM IN DRINKING WATER BEGINNING 1 WK POST LAST CARCINOGEN DOSE (STUDY DURATION: 14 MO), Route [Inhibitor]: ORAL, Species: MOUSE, Strain/Sex: B6D2F1/FEMALE, Target Tissue: Type of Lesion: LUNG: TUMOR, Dose [Carcinogen]: 1 MG IN OLIVE OIL 1/WK FOR 4 WK, Promoter: NONE USED","11/27 (41%), 13/23 (56%), -37%, not calculated"
same,"tumour outcome (control, treated, inhibition, significance)","Carcinogen: 7,12-DIMETHYLBENZ[A]ANTHRACENE, 57-97-6, Dose [Inhibitor]: 1130 PPM IN DRINKING WATER BEGINNING 1 WK POST LAST CARCINOGEN DOSE (STUDY DURATION: 14 MO), Route [Inhibitor]: ORAL, Species: MOUSE, Strain/Sex: B6D2F1/FEMALE, Target Tissue: Type of Lesion: LYMPHOID TISSUE: NEOPLASMS, Dose [Carcinogen]: 1 MG IN OLIVE OIL 1/WK FOR 4 WK, Promoter: NONE USE","12/29 (41%), 12/28 (43%), -4%, not calculated"
same,"tumour outcome (control, treated, inhibition, significance)","Carcinogen: 7,12-DIMETHYLBENZ[A]ANTHRACENE, 57-97-6, Dose [Inhibitor]: 1130 PPM IN DRINKING WATER BEGINNING 1 WK POST LAST CARCINOGEN DOSE (STUDY DURATION: 14 MO), Route [Inhibitor]: ORAL, Species: MOUSE, Strain/Sex: B6D2F1/FEMALE, Target Tissue: Type of Lesion: MAMMARY GLAND: TUMOR, Dose [Carcinogen]: 1 MG IN OLIVE OIL 1/WK FOR 4 WK, Promoter: NONE USED","7/29 (24%), 7/28 (25%), -4%, not calculated"
same,"tumour outcome (control, treated, inhibition, significance)","Carcinogen: URETHANE, 51-79-6, Dose [Inhibitor]: 1000 PPM IN DRINKING WATER BEGINNING 10 WK POST LAST CARCINOGEN DOSE (STUDY DURATION: 14 MO), Route [Inhibitor]: ORAL, Species: MOUSE, Strain/Sex: BALB/MALE, Target Tissue: Type of Lesion: LUNG: TUMOR, Dose [Carcinogen]: 1 G/KG 1/WK FOR 2 WK, Promoter: NONE USED","20/20 (100%), 17/17 (100%), 0%, not calculated"
same,"tumour outcome (control, treated, inhibition, significance)","Carcinogen: URETHANE, 51-79-6, Dose [Inhibitor]: 1800 PPM IN DRINKING WATER BEGINNING 10 WK POST LAST CARCINOGEN DOSE (STUDY DURATION: 14 MO), Route [Inhibitor]: ORAL, Species: MOUSE, Strain/Sex: BALB/MALE, Target Tissue: Type of Lesion: LUNG: TUMOR, Dose [Carcinogen]: 1 G/KG 1/WK FOR 2 WK, Promoter: NONE USED","20/20 (100%), 17/17 (100%), 0%, not calculated"
CC(C)=C1C=C(C(C)C)C(O)CC1 (centres undefined),"tumour outcome (control, treated, inhibition, significance)","Carcinogen: 7,12-DIMETHYLBENZ[A]ANTHRACENE, 57-97-6, Dose [Inhibitor]: 0, 12 NMOL PER REPEATED APPLICATION FOR 20 WK (STUDY DURATION: 20 WK), Route [Inhibitor]: DERMAL, Species: MOUSE, Strain/Sex: CD-1/FEMALE, Target Tissue: Type of Lesion: SKIN: TUMOR, Dose [Carcinogen]: 100 UG ONCE, Promoter: OKADAIC ACID, 78111-17-8","87%, 33%, 62%, not calculated"
Cc1csc(NC(=O)C(C(=O)OC(C)C)=C2SCS2)n1,"tumour outcome (control, treated, inhibition, significance)","Carcinogen: BENZO[A]PYRENE [50-32-8], Dose [Inhibitor]: 0, 150 MG/KG BW IN TRIOCTANOIN 1 D AND 2 HR PRIOR TO CARCINOGEN DOSE (STUDY DURATION: 21 WK), Route [Inhibitor]: GAVAGE, Species: MOUSE, Strain/Sex: CD-1/FEMALE, Target Tissue: Type of Lesion: SKIN: PAPILLOMA, Dose [Carcinogen]: 0.3 UMOL IN 0.2 ML ACETONE ONCE, Promoter: 12-O-TETRADECANOYLPHORBOL-13-ACETATE [16561-29-8]","92%, 73%, 21%, not calculated"
same,"tumour outcome (control, treated, inhibition, significance)","Carcinogen: BENZO[A]PYRENE [50-32-8], Dose [Inhibitor]: 150 MG/KG IN 10 µL TRIOCTANOIN ONCE 1 D AND 2 HR PRIOR TO CARCINOGEN DOSE (STUDY DURATION: 21 WK), Route [Inhibitor]: GAVAGE, Species: MOUSE, Strain/Sex: CD-1/FEMALE, Target Tissue: Type of Lesion: SKIN: PAPILLOMA, Dose [Carcinogen]: 0.3 UMOL IN 0.2 ML ACETONE ONCE (STUDY DURATION: 21 WK), Promoter: 12-O-TETRADECANOYLPHORBOL-13-ACETATE [16561-29-8]","92%, 75%, 18%, not calculated"
same,"tumour outcome (control, treated, inhibition, significance)","Carcinogen: VINYL CARBAMATE, 15805-73-9, Dose [Inhibitor]: 0, 150 MG/KG BW ONCE AT 2 HR AND 1 D PRIOR TO CARCINOGEN DOSE (STUDY DURATION: 22 WK), Route [Inhibitor]: GAVAGE, Species: MOUSE, Strain/Sex: CD-1/FEMALE, Target Tissue: Type of Lesion: SKIN: PAPILLOMA, Dose [Carcinogen]: 11.5 UMOL IN 0.2 ML ACETONE ONCE, Promoter: 12-O-TETRADECANOYLPHORBOL-13-ACETATE, 16561-29-8","58%, 37%, 36%, not calculated"
